Key:
ClbP [1] = biological target: T1, ClbP (Escherichia coli, UniProt Q0P7K6); assay: ClbP whole cell activity (inhibition) assay, fluorogenic substrate; assay type: cell-based, E. coli
Method: Whole Cell Activity Assay
(§1) 1) E. coli ClbP+ were taken from a frozen stock and streaked onto BHI plates. They were grown aerobically at 37° C. overnight in the incubator.
(§2) 1) A single colony was selected from the plate and inoculated into 30 mL LB in a 50 mL conical vial eight times (240 mL total). The bacteria were grown aerobically overnight (16-20 h) at 37° C. on a nutator with rocking.
1) The saturated overnight culture was centrifuged to create a firm pellet (3,200 g, 10 min, 4° C.). In a biosafety cabinet, the supernatant was removed and then the pellet was resuspended in 30 mL sterile PBS.
2) The bacteria were centrifuged again (3,200 g, 10 min, 4° C.). The supernatant was removed, and the pellet was resuspended in sterile PBS buffer (6 mL) in each of the 8 tubes. This fivefold concentrated bacterial solution was the working solution.
3) The bacterial working solution (192 μL) was mixed with inhibitor (6 μL, final concentration was 300, 100, 33.3, 11.1, 3.7, 1.2, 0.4, or 0 μM). Fluorogenic substrate (2 μL, final concentration 5 μM) was immediately added across the plate to initiate the reaction. As a control, each plate contained Compound No. III in this dose response curve. The bacterial concentration was fivefold concentrated compared to the original saturated overnight culture. Carryover from DMSO was 4% (v/v). All compounds were tested in singlicate.
(§3) 4) The plate was loaded into a spectrophotometer preheated to 37° C. The fluorescence was recorded every 2 min for 46 min. The excitation wavelength was 360 nm (20 nm bandwidth), the emission wavelength was 460 nm (20 nm bandwidth), the optics position was bottom, the gain was 65, the light source was a tungsten bulb, and the read speed was normal.
(§4) 5) The linear portion of the fluorescence increase was 10-30 min. The rate of fluorescence increase (A.U./min) for each well in an inhibitor series was normalized to the 0 μM inhibitor condition. The normalized activity as a function of inhibitor concentration was then fit to a three parameter IC50 curve in Graphpad Prism.
(§5) “A” indicates an IC50 value less than 100 μM, “B” indicates an IC50 between 100 and 300 μM, “C” indicates an IC50 above 300 μM.

ClbP [2] = biological target: T1, ClbP; assay: ClbP cell lysate activity (inhibition) assay, fluorogenic substrate; assay type: biochemical; conditions: ClbP Lysate Inhibition Assay: IC50, E. coli ClbP+ lysozyme-EDTA lysates, 5 μM fluorogenic substrate, inhibitor 0-300 μM, 37° C., singlicate
Method: Cell Lysate Activity Assay
as §1, §2
1) The saturated overnight culture was centrifuged to create a firm pellet (3,200 g, 10 min, 4° C.). The supernatant was removed and then the pellet was resuspended in 30 mL sterile PBS.
2) The bacteria were centrifuged again (3,200 g, 10 min, 4° C.). The supernatant was removed, and the pellet was resuspended in sterile PBS buffer (3 mL) in each 8 tubes to make a tenfold concentrated bacterial solution.
3) A lysozyme-EDTA (LE) solution was made in ddH2O (0.05 mg/mL lysozyme, 0.25 M EDTA).
4) For each of the eight tubes, LE solution (3 mL) was mixed with concentrated bacterial solution (3 mL). This mixture was incubated at 37° C. for 30 min to generate the lysates.
5) The lysates (192 μL) were mixed with inhibitor (6 μL, final concentration was 300, 100, 33.3, 11.1, 3.7, 1.2, 0.4, or 0 μM). Fluorogenic substrate (2 μL, final concentration 5 μM) was immediately added across the plate to initiate the reaction. As a control, each plate contained Compound No. III in this dose response curve. The final concentration of bacterial lysates was fivefold concentrated compared to the original saturated overnight culture. Carryover from DMSO was 4% (v/v). All compounds were tested in singlicate.
as §3, with “6)” for “4)”
as §4, with “7)” for “5)”, “0-20” for “10-30”
as §5

Full-length WT ClbP = Full-length WT ClbP (Escherichia coli, UniProt Q0P7K6); assay: ClbP molecular (purified protein) enzymatic inhibition assay, fluorogenic substrate; assay type: biochemical, E. coli
Method: ClbP Molecular (Purified Protein) Assay
1) Full-length WT ClbP was thawed on ice. A diluted enzyme solution (2 nM) was made by mixing 3.57 μL of enzyme with 20 mL of reaction buffer (50 mM Tris pH 8.0, 200 mM NaCl, 0.02% (w/v) n-dodecyl-b-D-maltoside (DDM)).
2) In a 96 well plate, the diluted protein solution (73.5 μL) was mixed with inhibitor (1.5 μL, of varying concentrations, see below) and preincubated for 15 min at room temperature. Then, reaction buffer (75 μL) containing 10 μM fluorogenic substrate was added to initiate the reaction. After addition of substrate, the final concentrations were 1 nM full-length WT ClbP, 5 μM fluorogenic substrate in 50 mM Tris pH 8.0, 200 mM NaCl, 0.02% (w/v) DDM, with either 0, 0.14, 0.41, 1.2, 3.7, 11, 33, or 100 μM inhibitor. For all conditions, the DMSO carryover was 2% (v/v) at the preincubation stage and 1% in the reaction stage. Compound No. III was always present as a control in each plate, and all compounds were tested in singlicate. In previous assays, the Km of the fluorogenic substrate was determined to be approximately 5 μM.
3) Immediately after addition of substrate to enzyme, the plate was transferred into a spectrophotometer held at room temperature. The fluorescence was recorded every 1.5 min for 15 min. The excitation wavelength was 360 nm (20 nm bandwidth), the emission wavelength was 440 nm (20 nm bandwidth), the optics position was bottom, the gain was extended, the light source was a xenon flash lamp, and the read speed was normal.
as §4, with “4)” for “5)”, “is at least from 0-6 min, so this time regime is used.” for “was 10-30 min.”
as §5

Structure (SMILES) | IC50 (ClbP [1]) [µM] | IC50 (ClbP [2]) [µM] | IC50 (Full-length WT ClbP) [µM]
NC(=O)C[C@@H](NC(=O)CCCC1CCCCC1)C(=O)NCCc1ccccn1 [Compound CCCIII] | < 100 | < 100 | < 100
CCCCCCCC(=O)N[C@H](CC(N)=O)C(=O)NC[C@@H](C)c1ccccc1 [Compound CCCII] | < 100 | < 100 | < 100
NC(=O)C[C@@H](NC(=O)CCCCCCCCC(F)(F)F)C(=O)NCCc1ccc(O)cc1 [Compound CCCIV] | < 100 | < 100 | < 100
CCCCCCCCCC(=O)N[C@H](CC(N)=O)C(=O)NCCc1ccccn1 [Compound CCCIX] | < 100 | < 100 | < 100
CCCCCCCC(=O)N[C@H](CC(N)=O)C(=O)NC[C@H](C)c1ccccc1 [Compound CCCI] | < 100 | < 100 | < 100
CN1CCC(CCCC(=O)N[C@H](CC(N)=O)C(=O)NCCc2ccc(O)cc2)CC1 [Compound CCCVIII] | < 100 | > 300 | > 300
CCCCCCCCCCCC(=O)N[C@H](CC(N)=O)C(=O)NCCc1ccc(O)cc1 [Compound CCCVII] | < 100 | < 100 | < 100
CCCCCCCC(=O)N[C@H](CC(N)=O)C(=O)NCCc1c(F)cc(O)cc1F [Compound CCCVI] | < 100 | < 100 | < 100
NC(=O)C[C@@H](NC(=O)CCCCCCC(F)(F)F)C(=O)NCCc1ccc(O)cc1 [Compound CCCV] | < 100 | < 100 | < 100
CCCCCCCC(=O)N[C@H](CC(N)=O)c1ncnn1Cc1ccccc1 [Compound CCCXII] | > 300 | > 300 | > 300
CCCCCCCC(=O)N[C@](C)(CC(N)=O)C(=O)NCCc1ccc(O)cc1 [Compound CCCXI] | > 300 | > 300 | > 300
CCCCCCCCCCCC(=O)N[C@H](CC(N)=O)C(=O)NCCc1ccccn1 [Compound CCCX] | > 300 | < 100 | < 100
CNCCCCCC(=O)N[C@H](CC(N)=O)C(=O)NCCc1ccc(O)cc1 [Compound CCC] | > 300 | > 300 | > 300
CCCCCCCC(=O)N[C@H](CC(N)=O)C(=O)N[C@H](C)Cc1ccccc1 [Compound CCIII] | < 100 | < 100 | < 100
CCCCCCCC(=O)N[C@H](CC(N)=O)C(=O)N[C@@H](C)Cc1ccccc1 [Compound CCIV] | > 300 | > 300 | 100 to 300
CCCCCCCNC(=O)[C@H](CC(N)=O)NC(=O)OCc1ccccc1 [Compound CCIX] | > 300 | > 300 | 100 to 300
CCCCCCCC(=O)N[C@H](CC(N)=O)C(=O)NCc1ccccc1 [Compound CCI] | < 100 | < 100 | < 100
NC(=O)C[C@@H](NC(=O)CCCc1ccc(O)cc1)C(=O)NCCc1ccc(O)cc1 [Compound CCLIII] | < 100 | < 100 | < 100

Structure (SMILES) | IC50 (ClbP [1]) [µM] | IC50 (ClbP [2]) [µM] | IC50 (Full-length WT ClbP) [µM]
NC(=O)C[C@@H](NC(=O)CCCC1CCNCC1)C(=O)NCCc1ccc(O)cc1 [Compound CCLII] | > 300 | > 300 | 100 to 300
CCCCCCCC(=O)N[C@H](CC(N)=O)C(=O)NCCOc1ccccc1 [Compound CCLIV] | < 100 | < 100 | < 100
CCCCCC(=O)N[C@H](CC(N)=O)C(=O)NCCc1ccc(C(F)(F)F)cc1 [Compound CCLIX] |  | 100 to 300 | 100 to 300
NC(=O)C[C@@H](NC(=O)CCCc1ccncc1)C(=O)NCCc1ccc(O)cc1 [Compound CCLI] | < 100 | 100 to 300 | < 100
CCCCCCCC(=O)N[C@H](CC(N)=O)C(=O)c1nccn1Cc1ccccc1 [Compound CCLVIII] | > 300 | > 300 | 100 to 300
CCCCCCCC(=O)N[C@H](CC(N)=O)C(=O)c1nccn1C [Compound CCLVII] | > 300 | > 300 | 100 to 300
CCCCCCCC(=O)N[C@H](CC(N)=O)C(=O)NCCc1cc(F)c(O)c(F)c1 [Compound CCLVI] | < 100 | < 100 | < 100
CCCCCCCC(=O)N[C@H](CC(N)=O)C(=O)NCCOc1c(F)cccc1F [Compound CCLV] | < 100 | < 100 | < 100
NC(=O)C[C@@H](NC(=O)CCCC1CCCC1)C(=O)NCCc1ccccc1 [Compound CCLXIII] | < 100 | < 100 | < 100
NC(=O)C[C@@H](NC(=O)/C=C/CC1CCCC1)C(=O)NCCc1ccccc1 [Compound CCLXII] | > 300 | > 300 | < 100
NC(=O)C[C@@H](NC(=O)CCCCCCC(=O)O)C(=O)NCCc1ccccc1 [Compound CCLXIV] | > 300 | > 300 | 100 to 300
NC(=O)C[C@@H](NC(=O)CCCc1ccccc1)C(=O)NCCc1ccccc1 [Compound CCLXIX] | < 100 | < 100 | < 100
NC(=O)C[C@@H](NC(=O)CCCC1CCCC1)C(=O)NCCc1ccc(O)cc1 [Compound CCLXI] | < 100 | < 100 | < 100
CCCC(=O)N[C@H](CC(N)=O)C(=O)NCCc1ccccc1 [Compound CCLXVIII] | < 100 | > 300 | 100 to 300
CCCCCC(=O)N[C@H](CC(N)=O)C(=O)NCCc1ccccc1 [Compound CCLXVII] | < 100 | 100 to 300 | < 100
CCCCCCCC(=O)N[C@H](CC(N)=O)C(=O)NCCc1ccc(O)cc1 [Compound CC] |  |  | < 100
CCCCCCCNC(=O)[C@H](CC(N)=O)NC(=O)OCC [Compound XCIX] | > 300 | > 300 | 

From patent US20230234917A1, “ASPARAGINE DERIVATIVES AND METHODS OF USING SAME” (priority 2020, published 2023)
